Consider 1 substance from paper PMC6759624, “Unraveling Heparan Sulfate Proteoglycan Binding Motif for Cancer Cell Selectivity” (Frontiers in Oncology, 2019).

One series concerns syndecan-4. The series can be described thus: SPR, NT4 binding to recombinant syndecan-4. More on the design: species or system human. The following applies: rHSPG over immobilized NT4. As to the method: Experiments were performed on a Biacore T100 instrument (GE Healthcare). All materials were purchased from GE Healthcare unless otherwise specified. Full-length recombinant human HSPG were purchased from R&D Systems. Syndecan-3, syndecan-4, and glypican-3 were obtained from the mouse myeloma cell line (NS0), and glypican-4 was obtained from the Chinese Hamster Ovary cell line. The activity of syndecan-4, glypican-3, and glypican-4 was measured by the supplier as the ability of the immobilized protein to bind FGF-basic. The activity of syndecan-3 was measured by the supplier as the ability of the immobilized protein to inhibit adhesion of Saos-2 human osteosarcoma cells to human fibronectin.
NT4-biotin was captured on a CM5 sensor chip where streptavidin had previously been immobilized by standard amine coupling. Briefly, the sensor chip surface was activated with a mixture of 0.1 M 1-ethyl-3(3-dimethylaminopropyl)-carbodiimide (EDC) and 0.4 M N-hydroxyl succinimide (NHS) for 7 min at a flow rate of 5 μl/min. Streptavidin was injected over the surface for 7 min, and finally, 1 M ethanolamine pH 8.5 was used to block any activated carboxyl groups. […]
Kinetics were analyzed with the Biacore T100 evaluation 1.1.1 software using the 1:1 Langmuir model to fit the curves.
A general note: In SPR one partner is held on a chip, and binding of the other changes the refractive index at the surface.

Series [1] relates to cell lines of different human cancers, including colon adenocarcinoma, pancreas adenocarcinoma, bladder cancer, and breast cancer. The following applies: ref [11], [12]; cited from earlier work. The source says: (§1) NT4 peptide is a tetrabranched peptide that binds to GAG chains of HSPG. […] NT4 binds cell lines of different human cancers, including colon adenocarcinoma, pancreas adenocarcinoma, bladder cancer, and breast cancer ([11], [12]).

For series [2] the following is noted: ref [9], [10]; cited from earlier work.
Text: as §1

For another series, the system named is PgsA-745 cells. The following applies: Chinese hamster ovary cell mutant, deficient in xylosyltransferase; ref [13]; cited from earlier work.
Text: as §1

In series [3] the test system is HT-29 human colon adenocarcinoma. Nature of the series: NT4 binding to cells by flow cytometry. In kind it is cell-based. The following applies: 1 μM NT4-biotin. As to the method:
(§2) PANC-1 human pancreas adenocarcinoma, HT-29 human colon adenocarcinoma, and MCF-7 and MDA-MB-231 human breast adenocarcinoma cells were grown in the recommended American Type Culture Collection (ATCC) media, supplemented with 10% fetal calf serum, 200 μg/ml glutamine, 100 μg/ml streptomycin, 60 μg/ml penicillin, and maintained at 37°C, 5% CO2. Cell lines were purchased from ATCC, and cell profiling was analyzed to authenticate human cell lines (BMR Genomics).
(§3) All experiments were performed using 2 × 10^5 cells in 96-well U-bottom plates. All dilutions were performed in phosphate-buffered saline (PBS), containing 5 mM EDTA and 1% bovine serum albumin (BSA).
(§4) Cells were incubated with 1 μM NT4-biotin for 30 min at room temperature and then incubated with 1 μg/ml streptavidin–fluorescein isothiocyanate (FITC). For heparinase treatment, cells were incubated for 1 h at 37°C on the plates with 0.03 IU/ml heparinase I/III blend (Sigma Aldrich), and then harvested and incubated with the same concentration of heparinase in suspension for an additional hour at 37°C before NT4 staining. All experiments were repeated two times. P values were calculated using a two-tailed Student t-test and GraphPad Prism 5.0 software.
On the technique in general: Flow cytometry measures light scatter and fluorescence of single cells or particles in a stream.

Series [4] has as its system PANC-1 human pancreas adenocarcinoma. Nature of the series: NT4 binding to cells by flow cytometry. In kind it is cell-based. The note with it: 1 μM NT4-biotin. On the procedure: as §2, §3, §4
Series [5] relates to MCF-7 human breast adenocarcinoma. The series can be described thus: NT4 binding to cells by flow cytometry. In kind it is cell-based. The following applies: heparinase I/III blend 0.03 IU/ml, 1 h + 1 h at 37°C, 1 μM NT4-biotin, 30 min, room temperature, streptavidin–FITC, repeated two times. On the procedure:
as §2, §3, §4

For series [6], the system named is MDA-MB-231 human breast adenocarcinoma. The series can be described thus: NT4 binding to cells by flow cytometry. It is filed as cell-based. The note with it: heparinase I/III blend 0.03 IU/ml, 1 h + 1 h at 37°C, 1 μM NT4-biotin, 30 min, room temperature, streptavidin–FITC, repeated two times. On the procedure:
as §2, §3, §4

Another series concerns cancer cells or tissues. On the set-up: method as in PMID 27255651, PMID 23713525. The following applies: competitors heparin and HS; ref [13], [19]; cited from earlier work.
Details of series [7]: method as in PMID 27255651. The note with it: compared with heparin and HS; ref [13]; cited from earlier work.
The test system of series [8] is pancreas adenocarcinoma cells. The following applies: ref [13]; cited from earlier work. The source says: (§5) NT4 peptides can be conjugated with different functional units and can selectively deliver drugs for cancer therapy or transport tracers for tumor imaging ([11], [12], [15]–[18]). […] NT4 transports the chemotherapeutic moiety to the cancer cell membrane and, ultimately, into the cell ([14]–[16]). In animal models of cancer, the higher concentration of the cytotoxic drug at the site of the tumo ...

The next series deals with breast cancer cells. The note with it: ref [13], [20]; cited from earlier work.
Text: as §5

“Also recorded” adds a separate entry of the source.

For (pyELYENKPRRPYIL)4K2K-beta-Ala [NT4], the “binding to syndecan-4” value with syndecan-4 is “binds”. In series [1], the “binding to human cancer cell lines” value is listed as “binds”. The “half-life (in words)” value in series [2] is “long half-life”. The “stability to proteolytic enzymes” value in [2] was “stable to proteolytic enzymes”. In the series with PgsA-745 cells, the “binding to cells lacking GAG chains” value is “does not bind”. Besides, the “NT4 cell binding relative to other cell lines” value is recorded as “bind NT4 better than the others; also recorded: higher in cell lines with lower expression of sulfatases” in series [3] (HT-29 (low sulfatase expression) versus MCF-7 and MDA-MB-231, flow cytometry); “bind NT4 better than the others; also recorded: higher in cell lines with lower expression of sulfatases” in series [4] (PANC-1 (low sulfatase expression) versus MCF-7 and MDA-MB-231, flow cytometry). Moreover, the “NT4 binding after heparinase treatment” value in [3] (HT-29, heparinase I/III blend 0.03 IU/ml, 1 h + 1 h at 37°C, 30 min, room temperature, streptavidin–FITC, repeated two times) is on record as “much lower than to control cells”; in series [4] (PANC-1, heparinase I/III blend 0.03 IU/ml, 1 h + 1 h at 37°C, 30 min, room temperature, streptavidin–FITC, repeated two times), “much lower than to control cells”; in series [5] it was “much lower than to control cells”; in [6] it was “much lower than to control cells”. Also, the “inhibition of NT4 binding and internalization by heparin and HS” value in the series on cancer cells or tissues is “completely inhibited”. For the same substance, the “binding to chondroitin sulfate” value in series [7] is recorded as “lower affinity”. In series [8], the “effect on oriented migration” value is “inhibited”. Further, the “effect on growth factor-induced migration and invasiveness” value in the series on breast cancer cells is “inhibited”.
